# Biological target: T1, Human Polymorphonuclear Leukocyte Elastase (Homo sapiens, UniProt P08246)
# T1 construct: Crude extract of human polymorphonuclear leukocytes (PMN) containing elastase activity; endogenous in cells; host or cells: human polymorphonuclear leukocytes (crude extract)
# T1 sequence (P08246 30-247 limits assumed): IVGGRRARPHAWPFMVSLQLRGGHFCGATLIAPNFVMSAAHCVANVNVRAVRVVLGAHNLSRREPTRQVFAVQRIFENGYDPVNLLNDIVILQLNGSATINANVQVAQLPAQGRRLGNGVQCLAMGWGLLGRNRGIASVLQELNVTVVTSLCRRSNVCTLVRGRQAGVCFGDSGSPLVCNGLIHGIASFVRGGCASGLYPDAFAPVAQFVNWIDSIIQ
# Assay: Enzyme assay for the inhibition of human polymorphonuclear leukocyte elastase via hydrolysis of N-t-Boc-alanyl-alanyl-prolylalanine-p-nitroanilide
# Type: biochemical
# Conditions: measured within 2 minutes, crude PMN extract, 0.2 mM Boc-AAPAN, pH 7.5; for inhibition at 0.5 µg/mL: Conc. 0.5 μg/ml; for inhibition at 1 µg/mL: Conc. 1 μg/ml; for inhibition at 5 µg/mL: Conc. 5 μg/ml; for inhibition at 20 µg/mL: Conc. 20 μg/ml; for inhibition at 2 µg/mL: Conc. 2 μg/ml; for inhibition at 10 µg/mL: Conc. 10 μg/ml; for inhibition at 50 µg/mL: Conc. 50 μg/ml
# Protocol: Protocol--Enzyme Assays for the Inhibition of Human Polymorphonuclear Leukocyte Elastase Via Hydrolysis of N-t-Boc-alanyl-alanyl-prolylalanine-p-nitroanilide
# 0.05M TES (N-tris[hydroxymethyl]methyl-2-amino-ethanesulfonic acid) Buffer, pH 7.5.
# 0.2 mM N-to-Boc-alanyl-alanyl-Prolyl-Alanine-p-nitroanilide (Boc-AAPAN).
# To prepare substrate, the solid (m.w. 550) was first dissolved in 10.0 ml DMSO. Buffer at pH 7.5 was then added to a final volume of 100 ml.
# Crude extract of human polymorphonuclear leukocytes (PMN) containing elastase activity.
# Inhibitors (carbapenem esters) to be tested dissolved in DMSO just before use.
# To 1.0 ml of 0.2 mM Boc-AAPAN in a cuvette, 0.01-0.1 ml of DMSO with or without inhibitor was added. After mixing, a measurement was taken at 410 mμ to detect any spontaneous hydrolysis due to presence of test compound. 0.05 Milliliters of PMN extract was then added and the ΔOD/min at 410 mμ was measured and recorded. Beckman model 35 spectrophotometer was used.
# The elastase activity in the crude PMN extract may vary from one preparation to another. A control of each new batch is run, and the volume added in the assay procedure is adjusted according to activity.
Structure (SMILES),inhibition at 0.5 µg/mL [%],inhibition at 1 µg/mL [%],inhibition at 5 µg/mL [%],inhibition at 20 µg/mL [%],inhibition at 2 µg/mL [%],inhibition at 10 µg/mL [%],inhibition at 50 µg/mL [%]
CC(O)C1C(=O)N2C(C(=O)OCc3ccc([N+](=O)[O-])cc3)=C(Sc3ccncc3)CC12 (stereo not shown),21,72,93,100,–,–,–
CC(OC(=O)OCc1ccccc1[N+](=O)[O-])C1C(=O)N2C(C(=O)OCc3ccccc3[N+](=O)[O-])=C(c3ccc(CN=[N+]=[N-])cc3)CC12 (stereo not shown),–,59,74,–,66,76,79
O=C(OCc1ccccc1)C1=C(SCc2ccccc2)CC2C(CO)C(=O)N12 (stereo not shown) [Benzyl],–,77,90,–,–,93,97
CC(OC(=O)OCc1ccccc1[N+](=O)[O-])C1C(=O)N2C(C(=O)OCc3ccccc3[N+](=O)[O-])=CCC12 (stereo not shown),27,46,85,88,78,88,–
CC=C1C(=O)N2C(C(=O)OCc3ccc([N+](=O)[O-])cc3)=C(SCCN3C(=O)c4ccccc4C3=O)CC12 (stereo not shown),–,–,–,47,–,–,73
CC(O)C1C(=O)N2C(C(=O)OCc3ccc([N+](=O)[O-])cc3)=C(SCc3ccccc3)CC12 (stereo not shown),–,–,–,50,–,–,75
CC(O)C1C(=O)N2C(C(=O)OCc3ccc([N+](=O)[O-])cc3)=C(SCc3ccccn3)CC12 (stereo not shown),–,–,63,100,–,–,–
CC(NC(=O)OCc1ccccc1[N+](=O)[O-])C1C(=O)N2C(C(=O)OCc3ccccc3[N+](=O)[O-])=CCC12 (stereo not shown),–,–,23,72,–,57,82
CC(O)C1C(=O)N2C(C(=O)OCc3ccc([N+](=O)[O-])cc3)=C(SCCO)CC12 (stereo not shown),–,–,–,84,–,–,95

# From patent US4493839A, “1-Carbapenem-3-carboxylic esters as anti-inflammatory agents” (Merck & Co., Inc., priority 1982, dated 1985)
